According to patent US11679114B2, “Progestogen-only oral contraception” (Navad Life Sciences Pte, priority 2021, dated 2023):
Several values for one entry are separate records, joined by “and”; a condition that tells them apart may be missing. Identical values can stand only once.

Assays:
[1] = test system: healthy, cyclic women; assay: Ovarian activity according the Hoogland-Skouby score during two 28-day treatment periods; type: in vivo, human
Description: (§1) The tablets prepared in Example 1 were tested in a single-center, open-label, adaptive design study to evaluate the influence on hormonal and ovarian function and vaginal bleeding pattern of different higher dosages of LNG administered once daily for 28 days over two consecutive treatment cycles in healthy, cyclic women.
The first tested dosage was 0.095 mg per day. The choice of subsequent dosages depended on the occurrence of ovulations in the previous treatment groups. The study was stopped when the lowest dosage completely inhibiting ovulation was identified, and one higher and one lower dosage were investigated.
(§2) Subjects started study medication intake on the first day of menstrual bleeding after the pre-treatment cycle. One tablet was taken orally, around the same time every morning, during 56 consecutive days. Study visits were planned every three (±1) days from treatment day 3 (±1) until 27 (±1) and from day 31 (±1) until day 55 (±1). At each visit the diameter of the largest follicle-like structure (FLS) and serum follicle-stimulating hormone (FSH), luteinizing hormone (LH), estradiol (E2) and P concentrations were measured.
The primary outcome parameter was ovarian activity according the Hoogland-Skouby score (Table 1), determined for each 28-day treatment period (Hoogland H J, Skouby S O. “Ultrasound evaluation of ovarian activity under oral contraceptives,” Contraception 1993; 47: pp. 583-90).
(§3) If ovulation was observed during treatment, the subsequent luteal phase was evaluated using the Landgren criterion, i.e. the luteal phase was considered adequate when P concentrations were >16 nmol/L during at least 5 days (Landgren et al., “Hormonal effects of the 300 μg norethisterone (NET) minipill. 1. Daily steroid levels in 43 subjects during a pretreatment cycle and during the second month of NET administration,” Contraception 1980; 21: pp. 87-113). TVUS measurements of the diameter of the largest FLS (mean of two directions) were performed using a Voluson E8 Expert device (GE Medical Systems). Serum FSH, LH, E2, P and SHBG concentrations were determined by validated chemiluminescent microparticle immunoassays (Abbott, Longford, Ireland). All pharmacodynamic parameters were evaluated descriptively.

[2] = test system: healthy, cyclic women; assay: Serum FSH, LH, estradiol (E2) and progesterone (P) concentrations during treatment; type: in vivo, human; conditions: LNG 0.095 mg per day
Description: as §1, §2, §3

[3] = LNG 0.095 mg per day, treatment period 1
[4] = LNG 0.095 mg per day, treatment period 2
[5] = LNG 0.115 mg per day, treatment period 1
[6] = LNG 0.115 mg per day, treatment period 2
[7] = LNG 0.135 mg per day, treatment period 1
[8] = LNG 0.135 mg per day, treatment period 2
[9] = BMI < 30 kg/m^2, entire treatment period
[10] = BMI ≥ 30 kg/m^2, entire treatment period

## C#C[C@]1(O)CC[C@H]2[C@@H]3CCC4=CC(=O)CC[C@@H]4[C@H]3CC[C@@]21CC (racemic) [LNG, levonorgestrel]
[1]; [3]
  Subjects with Hoogland-Skouby score 1 (No activity), %: 3.7%
  Subjects with Hoogland-Skouby score 2 (Potential activity), %: 29.6%
  Subjects with Hoogland-Skouby score 3 (Non-active FLS), %: 3.7%
  Subjects with Hoogland-Skouby score 4 (Active FLS), %: 55.6%
  Subjects with Hoogland-Skouby score 5 (LUF), %: 0%
  Subjects with Hoogland-Skouby score 6 ('Ovulation'), %: 7.4%
[1]; [4]
  Subjects with Hoogland-Skouby score 1 (No activity), %: 0%
  Subjects with Hoogland-Skouby score 2 (Potential activity), %: 24.0%
  Subjects with Hoogland-Skouby score 3 (Non-active FLS), %: 0%
  Subjects with Hoogland-Skouby score 4 (Active FLS), %: 76.0%
  Subjects with Hoogland-Skouby score 5 (LUF), %: 0%
  Subjects with Hoogland-Skouby score 6 ('Ovulation'), %: 0%
[1]; [5]
  Subjects with Hoogland-Skouby score 1 (No activity), %: 3.7%
  Subjects with Hoogland-Skouby score 2 (Potential activity), %: 22.2%
  Subjects with Hoogland-Skouby score 3 (Non-active FLS), %: 3.7%
  Subjects with Hoogland-Skouby score 4 (Active FLS), %: 70.4%
  Subjects with Hoogland-Skouby score 5 (LUF), %: 0%
  Subjects with Hoogland-Skouby score 6 ('Ovulation'), %: 0%
[1]; [6]
  Subjects with Hoogland-Skouby score 1 (No activity), %: 3.85%
  Subjects with Hoogland-Skouby score 2 (Potential activity), %: 23.1%
  Subjects with Hoogland-Skouby score 3 (Non-active FLS), %: 7.7%
  Subjects with Hoogland-Skouby score 4 (Active FLS), %: 65.4%
  Subjects with Hoogland-Skouby score 5 (LUF), %: 0%
  Subjects with Hoogland-Skouby score 6 ('Ovulation'), %: 0%
[1]; [7]
  Subjects with Hoogland-Skouby score 1 (No activity), %: 4.0%
  Subjects with Hoogland-Skouby score 2 (Potential activity), %: 32.0%
  Subjects with Hoogland-Skouby score 3 (Non-active FLS), %: 0%
  Subjects with Hoogland-Skouby score 4 (Active FLS), %: 64.0%
  Subjects with Hoogland-Skouby score 5 (LUF), %: 0%
  Subjects with Hoogland-Skouby score 6 ('Ovulation'), %: 0%
[1]; [8]
  Subjects with Hoogland-Skouby score 1 (No activity), %: 4.0%
  Subjects with Hoogland-Skouby score 2 (Potential activity), %: 24.0%
  Subjects with Hoogland-Skouby score 3 (Non-active FLS), %: 4.0%
  Subjects with Hoogland-Skouby score 4 (Active FLS), %: 68.0%
  Subjects with Hoogland-Skouby score 5 (LUF), %: 0%
  Subjects with Hoogland-Skouby score 6 ('Ovulation'), %: 0%
[1]; once daily oral, two 28-day treatment periods, 0.095, 0.115 and 0.135 mg tested
  Lowest dosage at which no ovulation occurred (lowest effective dosage): 0.115 mg per day
[2]
  LH peak in one of the ovulating subjects: 68.0 IU/L
[2]; [9]
  Maximum E2 concentration, Mean ± SD: 705 ± 537 pmol/L
  Mean E2 concentration, Mean ± SD: 253 ± 140 pmol/L
[2]; [10]
  Maximum E2 concentration, Mean ± SD: 484 ± 277 pmol/L
  Mean E2 concentration, Mean ± SD: 190 ± 72 pmol/L
[2]; entire treatment period
  Maximum E2 concentration, Mean ± SD: 660 ± 500 pmol/L
  Maximum E2 concentration, Median: 580 pmol/L
  Mean E2 concentration, Mean ± SD: 241 pmol/L and 241 ± 130 pmol/L
  Mean E2 concentration, Median: 204 pmol/L
[2]; treatment period 1
  Maximum E2 concentration, Mean ± SD: 595 ± 495 pmol/L
  Maximum E2 concentration, Median: 362 pmol/L
  Mean E2 concentration, Mean ± SD: 289 ± 195 pmol/L
  Mean E2 concentration, Median: 231 pmol/L
[2]; treatment period 2
  Maximum E2 concentration, Mean ± SD: 384 ± 304 pmol/L
  Maximum E2 concentration, Median: 224 pmol/L
  Mean E2 concentration, Mean ± SD: 186 ± 97 pmol/L
  Mean E2 concentration, Median: 144 pmol/L
